Data: patent publication US20110053773A1, “METHODS OF IMPROVING NUTRITIONAL VALUE OF PLANTS” (UNIVERSITY OF TENNESSEE RESEARCH FOUNDATION, priority 2009, published 2011)

How the values were obtained:
[1] = tested on: kale 'Red Russian'; experiment: Content analysis of kale: protein, amino acids, fiber, fatty acids, minerals (Example 4, Tables 12-14); type: in vivo; details: 28 DA-A; for Alanine, Percent Increase over the Untreated Check (on a % dry matter basis) / Aspartic acid, Percent Increase over the Untreated Check (on a % dry matter basis) / Cysteine, Percent Increase over the Untreated Check (on a % dry matter basis) / Glutamic acid, Percent Increase over the Untreated Check (on a % dry matter basis) / Glycine, Percent Increase over the Untreated Check (on a % dry matter basis) / Iso-leucine, Percent Increase over the Untreated Check (on a % dry matter basis) / Leucine, Percent Increase over the Untreated Check (on a % dry matter basis) / Lysine, Percent Increase over the Untreated Check (on a % dry matter basis) / Methionine, Percent Increase over the Untreated Check (on a % dry matter basis) / Proline, Percent Increase over the Untreated Check (on a % dry matter basis) / Threonine, Percent Increase over the Untreated Check (on a % dry matter basis) / Total Amino acids, Percent Increase over the Untreated Check (on a % dry matter basis) / Total Protein, Percent Increase over the Untreated Check (on a % dry matter basis) / Valine, Percent Increase over the Untreated Check (on a % dry matter basis): chlorothalonil ###
Description: (§1) Greenhouse and laboratory studies were conducted to ascertain the tolerance and nutritional quality differences following postemergence applications of the insecticide chlorpyrifos, the fungicide chlorothalonil, the PGRs mepiquat-chloride and paclobutrazol, and the safeners napthalic anhydride and isoxadifen-ethyl on kale ‘Red Russian’ and basil ‘Genovese’. Visual injury was rated based on general phytotoxicity, chlorosis, and visual stunting and each measurement was based on a percent scale from 0 to 100 where 0 equals no visual response and 100 equals complete plant death. Kale and basil were both harvested approximately 4 weeks after treatments and plants were pooled over replicates for content analysis of crude protein, crude amino acid content, acid detergent fiber, neutral detergent fiber, total fatty acids, and/or key mineral content (including Na, Ca, P, Mg, K, Fe, Mn, Zn, and Cu). In addition, the amounts of key individual amino acids (aspartic acid, threonine, glutamic acid, proline, glycine, cysteine, valine, leucine, isoleucine, methionine, and lysine) and composite classifications of fatty acid (saturated fatty acids, monounsaturated fatty acids, polyunsaturated fatty acids) were also analyzed from these sub-samples for kale (Tables 10-14).

[2] = tested on: kale 'Red Russian'; experiment: Visual injury of kale after insecticide, fungicide, PGRs, safeners (Example 4); details: 7 DA-A, rates g ai/ha: chlropyrifos 1120, chlorothalonil 2630, paclobutrazol 3.23, mepiquat-chloride 12.3, + NIS 0.25 % v/v
Description: as §1

[3] = first-listed rate g ai/ha: chlropyrifos ###, paclobutrazol 3.2, mepiquat-chloride 12, + NIS 0.3 % v/v
[4] = rates g ai/ha: chlropyrifos 1120, chlorothalonil 2630, paclobutrazol 3.23, mepiquat-chloride 12.3, + NIS 0.25 % v/v
[5] = rates g ai/ha: chlropyrifos 3370, chlorothalonil 7900, paclobutrazol 9.7, mepiquat-chloride 37, + NIS 0.25 % v/v
[6] = second-listed rate g ai/ha: chlropyrifos ###, paclobutrazol 9.7, mepiquat-chloride 37, + NIS 0.3 % v/v

CCOP(=S)(OCC)Oc1nc(Cl)c(Cl)cc1Cl [chlropyrifos]
Alanine, Percent Increase over the Untreated Check (on a % dry matter basis) [1, 3]: −1 % check | Aspartic acid, Percent Increase over the Untreated Check (on a % dry matter basis) [1, 3]: 0 % check | Cysteine, Percent Increase over the Untreated Check (on a % dry matter basis) [1, 3]: 0 % check | Glutamic acid, Percent Increase over the Untreated Check (on a % dry matter basis) [1, 3]: 5 % check | Glycine, Percent Increase over the Untreated Check (on a % dry matter basis) [1, 3]: −4 % check | Iso-leucine, Percent Increase over the Untreated Check (on a % dry matter basis) [1, 3]: 0 % check | Leucine, Percent Increase over the Untreated Check (on a % dry matter basis) [1, 3]: 0 % check | Lysine, Percent Increase over the Untreated Check (on a % dry matter basis) [1, 3]: 6 % check | Methionine, Percent Increase over the Untreated Check (on a % dry matter basis) [1, 3]: 2 % check | Proline, Percent Increase over the Untreated Check (on a % dry matter basis) [1, 3]: −2 % check | Threonine, Percent Increase over the Untreated Check (on a % dry matter basis) [1, 3]: −2 % check | Total Amino acids, Percent Increase over the Untreated Check (on a % dry matter basis) [1, 3]: 1 % check | Total Protein, Percent Increase over the Untreated Check (on a % dry matter basis) [1, 3]: 3 % check | Valine, Percent Increase over the Untreated Check (on a % dry matter basis) [1, 3]: 1 % check | ADF, Percent Increase Over the Untreated Check (on a % dry matter basis) [1, 4]: 1 % check | Calcium, Percent Increase Over the Untreated Check (on a % dry matter basis) [1, 4]: 18 % check | Copper, Percent Increase Over the Untreated Check (on a % dry matter basis) [1, 4]: 50 % check | Iron, Percent Increase Over the Untreated Check (on a % dry matter basis) [1, 4]: 33 % check | Magnesium, Percent Increase Over the Untreated Check (on a % dry matter basis) [1, 4]: 11 % check | Manganese, Percent Increase Over the Untreated Check (on a % dry matter basis) [1, 4]: 39 % check | NDF, Percent Increase Over the Untreated Check (on a % dry matter basis) [1, 4]: −8 % check | Phosphorous, Percent Increase Over the Untreated Check (on a % dry matter basis) [1, 4]: 9 % check | Potassium, Percent Increase Over the Untreated Check (on a % dry matter basis) [1, 4]: 4 % check | Sodium, Percent Increase Over the Untreated Check (on a % dry matter basis) [1, 4]: 13 % check | Zinc, Percent Increase Over the Untreated Check (on a % dry matter basis) [1, 4]: 18 % check | ADF, Percent Increase Over the Untreated Check (on a % dry matter basis) [1, 5]: 9 % check | Calcium, Percent Increase Over the Untreated Check (on a % dry matter basis) [1, 5]: 0 % check | Copper, Percent Increase Over the Untreated Check (on a % dry matter basis) [1, 5]: 28 % check | Iron, Percent Increase Over the Untreated Check (on a % dry matter basis) [1, 5]: 3 % check | Magnesium, Percent Increase Over the Untreated Check (on a % dry matter basis) [1, 5]: 3 % check | Manganese, Percent Increase Over the Untreated Check (on a % dry matter basis) [1, 5]: 16 % check | NDF, Percent Increase Over the Untreated Check (on a % dry matter basis) [1, 5]: 1 % check | Phosphorous, Percent Increase Over the Untreated Check (on a % dry matter basis) [1, 5]: 7 % check | Potassium, Percent Increase Over the Untreated Check (on a % dry matter basis) [1, 5]: 1 % check | Sodium, Percent Increase Over the Untreated Check (on a % dry matter basis) [1, 5]: 45 % check | Zinc, Percent Increase Over the Untreated Check (on a % dry matter basis) [1, 5]: 10 % check | Alanine, Percent Increase over the Untreated Check (on a % dry matter basis) [1, 6]: 6 % check | Aspartic acid, Percent Increase over the Untreated Check (on a % dry matter basis) [1, 6]: 7 % check | Cysteine, Percent Increase over the Untreated Check (on a % dry matter basis) [1, 6]: 6 % check | Glutamic acid, Percent Increase over the Untreated Check (on a % dry matter basis) [1, 6]: 12 % check | Glycine, Percent Increase over the Untreated Check (on a % dry matter basis) [1, 6]: 3 % check | Iso-leucine, Percent Increase over the Untreated Check (on a % dry matter basis) [1, 6]: 6 % check | Leucine, Percent Increase over the Untreated Check (on a % dry matter basis) [1, 6]: 6 % check | Lysine, Percent Increase over the Untreated Check (on a % dry matter basis) [1, 6]: 11 % check | Methionine, Percent Increase over the Untreated Check (on a % dry matter basis) [1, 6]: 0 % check | Proline, Percent Increase over the Untreated Check (on a % dry matter basis) [1, 6]: 9 % check | Threonine, Percent Increase over the Untreated Check (on a % dry matter basis) [1, 6]: 4 % check | Total Amino acids, Percent Increase over the Untreated Check (on a % dry matter basis) [1, 6]: 7 % check | Total Protein, Percent Increase over the Untreated Check (on a % dry matter basis) [1, 6]: 5 % check | Valine, Percent Increase over the Untreated Check (on a % dry matter basis) [1, 6]: 7 % check | Phytotoxicity Chlorosis [2]: 1%
